From patent US10829520B2, “Beta-hairpin peptidomimetics” (POLYPHOR AG, priority 2015, dated 2020)
Where a SMILES comes first, the peptide text is derived from it. Bridges are numbered along the chain shown (N, C = ends). Roman numbers before positions name the chains, in order. [ ]: non-standard residue; d: D form. Hyp = O=C(O)[C@@H]1C[C@@H](O)CN1; Tle = CC(C)(C)[C@H](N)C(=O)O; dDab = NCC[C@@H](N)C(=O)O; Nle = CCCC[C@H](N)C(=O)O; Dab = NCC[C@H](N)C(=O)O; dAze = O=C(O)[C@H]1CCN1; Dap = NC[C@H](N)C(=O)O

Key:
Type in all cases: cell-based
[1] = test system: Acinetobacter baumannii 872842; settings: 872842
[2] = test system: Acinetobacter baumannii DSM 30008; settings: DSM 30008
In short: (§1)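 Antibacterial activity is measured as MIC (μg/mL) by standard CLSI microdilution. Inocula of about 10^6 CFU/mL in MH-II broth meet two-fold peptide dilutions in medium with 0.002% Polysorbate 80, and growth is scored visually after 18-20 hours at 35° C.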

Escherichia coli 926415 = settings: 926415
[3] = test system: Escherichia coli ATCC 25922; settings: ATCC 25922
In short: as §1

[4] = test system: Klebsiella pneumoniae 968733; settings: 968733
[5] = test system: Klebsiella pneumoniae SSI #3010; settings: SSI #3010
In short: as §1

[6] = test system: Pseudomonas aeruginosa ATCC 27853; settings: ATCC 27853
In short: as §1

[7] = test system: human red blood cells (hRBC); experiment: Hemolysis of human red blood cells; settings: red cells of human, 1 h, 100
In short: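 Percent hemolysis = OD540 of peptide-treated supernatant relative to the 2.5% Triton X-100 (100%) control, PBS containing 0.001% acetic acid defining 0%. Peptides tested at 100 μg/mL against 20% (v/v) washed human RBC, 1 h, 37 °C, 300 rpm.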

| SMILES | Acinetobacter baumannii 872842 MIC [1] [µg/mL] | Acinetobacter baumannii DSM 30008 MIC [2] [µg/mL] | Escherichia coli 926415 MIC (Escherichia coli 926415) [µg/mL] | Escherichia coli ATCC 25922 MIC [3] [µg/mL] | Klebsiella pneumoniae 968733 MIC [4] [µg/mL] | Klebsiella pneumoniae SSI #3010 MIC [5] [µg/mL] | Pseudomonas aeruginosa ATCC 27853 MIC [6] [µg/mL] | Hemolysis at 100 μg/mL [7] [%] |
| --- | --- | --- | --- | --- | --- | --- | --- | --- |
| CCCC[C@@H]1NC(=O)[C@@H]2CCCN2C(=O)[C@H]2CCCN2C(=O)[C@H](CO)NC(=O)[C@H](CO)NC(=O)[C@H](C(C)(C)C)NC(=O)[C@H](CCN)NC(=O)[C@H](Cc2c[nH]c3ccccc23)NC(=O)[C@H](CCN)NC(=O)[C@@H](CCN)NC(=O)[C@H](CCC(=O)N[C@@H](CCN)C(=O)N[C@H](C(=O)N[C@@H](CCN)C(=O)N[C@H]2CCNC(=O)[C@H]([C@@H](C)O)NC(=O)[C@H](CCN)NC(=O)[C@H](CCN)NC(=O)[C@H](CC(C)C)NC(=O)[C@@H](CC(C)C)NC(=O)[C@H](CCN)NC2=O)[C@@H](C)O)NC(=O)[C@H](CCN)NC(=O)[C@H](Cc2ccc(O)cc2)NC(=O)[C@H](CN)NC1=O [Ex. 83] (I: cyclo([Nle][Dap]Y[Dab]E[dDab][Dab]W[Dab][Tle]SS[dP]P) / II: [Dab]T[Dab][Dab][Dab][dL]L[Dab][Dab]T; amide I:5-II:N; lactam II:4-II:C) | 1 | 1 | 1 | 2 | 4 | 2 | 1 | 1 |
| CCCC[C@@H]1NC(=O)[C@@H]2CCCN2C(=O)[C@H]2CCCN2C(=O)[C@H](CO)NC(=O)[C@H](CN)NC(=O)[C@H](C(C)(C)C)NC(=O)[C@H](CCN)NC(=O)[C@H](Cc2c[nH]c3ccccc23)NC(=O)[C@H](CCN)NC(=O)[C@@H](CCN)NC(=O)[C@H](CCC(=O)N[C@@H](CCN)C(=O)N[C@H](C(=O)N[C@@H](CCN)C(=O)N[C@H]2CCNC(=O)[C@H]([C@@H](C)O)NC(=O)[C@H](CCN)NC(=O)[C@H](CCN)NC(=O)[C@H](CC(C)C)NC(=O)[C@@H](CC(C)C)NC(=O)[C@H](CCN)NC2=O)[C@@H](C)O)NC(=O)[C@H](CCN)NC(=O)[C@H](Cc2ccc(O)cc2)NC(=O)[C@H](CO)NC1=O [Ex. 84] (I: cyclo([Nle]SY[Dab]E[dDab][Dab]W[Dab][Tle][Dap]S[dP]P) / II: [Dab]T[Dab][Dab][Dab][dL]L[Dab][Dab]T; amide I:5-II:N; lactam II:4-II:C) | 2 | 1 | 1 | 1 | 2 | 2 | 2 | 1 |
| CC(C)C[C@@H]1NC(=O)[C@@H](CC(C)C)NC(=O)[C@H](CCN)NC(=O)[C@@H](NC(=O)[C@H](CCN)NC(=O)[C@@H](NC(=O)[C@H](CCN)NC(=O)CC[C@@H]2NC(=O)[C@H](CCN)NC(=O)[C@H](Cc3ccc(O)cc3)NC(=O)[C@H](CN)NC(=O)[C@H](C(C)C)NC(=O)[C@@H]3CCCN3C(=O)[C@H]3CCCN3C(=O)[C@H](CO)NC(=O)[C@H](C)NC(=O)[C@H](C(C)C)NC(=O)[C@H](CCN)NC(=O)[C@H](Cc3c[nH]c4ccccc34)NC(=O)[C@H](CCN)NC(=O)[C@@H](CCN)NC2=O)[C@@H](C)O)CCNC(=O)[C@H]([C@@H](C)O)NC(=O)[C@H](CCN)NC(=O)[C@H](CCN)NC1=O [Ex. 85] (I: cyclo(V[Dap]Y[Dab]E[dDab][Dab]W[Dab]VAS[dP]P) / II: [Dab]T[Dab][Dab][Dab][dL]L[Dab][Dab]T; amide I:5-II:N; lactam II:4-II:C) | 1 | 1 | 2 | 1 | 8 | 2 | 1 | <1 |

Further lines, with some results ahead:

| Acinetobacter baumannii 872842 MIC [1] [µg/mL] | Acinetobacter baumannii DSM 30008 MIC [2] [µg/mL] | Escherichia coli 926415 MIC (Escherichia coli 926415) [µg/mL] | Escherichia coli ATCC 25922 MIC [3] [µg/mL] | Klebsiella pneumoniae 968733 MIC [4] [µg/mL] | Klebsiella pneumoniae SSI #3010 MIC [5] [µg/mL] | Pseudomonas aeruginosa ATCC 27853 MIC [6] [µg/mL] | SMILES | Hemolysis at 100 μg/mL [7] [%] |
| --- | --- | --- | --- | --- | --- | --- | --- | --- |
| 0.5 | 1 | 0.25 | 0.25 | 0.5 | 0.25 | 0.5 | CC(C)C[C@@H]1NC(=O)[C@@H](Cc2ccccc2)NC(=O)[C@H](CCN)NC(=O)[C@@H](NC(=O)[C@H](CCN)NC(=O)[C@@H](NC(=O)[C@H](CCN)NC(=O)CC[C@@H]2NC(=O)[C@H](CCN)NC(=O)[C@H](Cc3ccc(O)cc3)NC(=O)[C@@H]3CCNC(=O)C[C@H](NC(=O)[C@H](C(C)(C)C)NC(=O)[C@H](CCN)NC(=O)[C@H](Cc4c[nH]c5ccccc45)NC(=O)[C@H](CCN)NC(=O)[C@@H](CCN)NC2=O)C(=O)N[C@@H]([C@@H](C)O)C(=O)N2CC[C@@H]2C(=O)N2CCC[C@H]2C(=O)N[C@@H](C(C)C)C(=O)N3)[C@@H](C)O)CCNC(=O)[C@H]([C@@H](C)O)NC(=O)[C@H](CCN)NC(=O)[C@H](CCN)NC1=O [Ex. 86] (I: cyclo(DT[dAze]PV[Dab]Y[Dab]E[dDab][Dab]W[Dab][Tle]) / II: [Dab]T[Dab][Dab][Dab][dF]L[Dab][Dab]T; lactam I:1-I:6, II:4-II:C; amide I:9-II:N) | 1 |
| 0.5 | 0.25 | 0.125 | 0.125 | 0.25 | 0.25 | 0.25 | CC(C)C[C@@H]1NC(=O)[C@@H](CC(C)C)NC(=O)[C@H](CCN)NC(=O)[C@@H](NC(=O)[C@H](CCN)NC(=O)[C@@H](NC(=O)[C@H](CCN)NC(=O)CC[C@@H]2NC(=O)[C@H](CCN)NC(=O)[C@H](Cc3ccc(O)cc3)NC(=O)[C@@H]3CCNC(=O)C[C@H](NC(=O)[C@H](C(C)(C)C)NC(=O)[C@H](CCN)NC(=O)[C@H](Cc4c[nH]c5ccccc45)NC(=O)[C@H](CCN)NC(=O)[C@@H](CCN)NC2=O)C(=O)N[C@@H]([C@@H](C)O)C(=O)N2CC[C@@H]2C(=O)N2CCC[C@H]2C(=O)N[C@@H](C(C)C)C(=O)N3)[C@@H](C)O)CCNC(=O)[C@H]([C@@H](C)O)NC(=O)[C@H](CCN)NC(=O)[C@H](CCN)NC1=O [Ex. 87] (I: cyclo(W[Dab][Tle]DT[dAze]PV[Dab]Y[Dab]E[dDab][Dab]) / II: [Dab]T[Dab][Dab][Dab][dL]L[Dab][Dab]T; lactam I:4-I:9, II:4-II:C; amide I:12-II:N) | <1 |
| 1 | 0.5 | 1 | 0.125 | 2 | 0.25 | 0.5 | CC(C)C[C@@H]1NC(=O)[C@@H](CC(C)C)NC(=O)[C@H](CCN)NC(=O)[C@@H](NC(=O)[C@H](CCN)NC(=O)[C@@H](NC(=O)[C@H](CCN)NC(=O)CC[C@@H]2NC(=O)[C@H](CCN)NC(=O)[C@H](Cc3ccc(O)cc3)NC(=O)[C@H](CO)NC(=O)[C@H](CC(C)C)NC(=O)[C@@H]3C[C@@H](O)CN3C(=O)[C@@H](C)NC(=O)[C@H](CO)NC(=O)[C@H]([C@@H](C)O)NC(=O)[C@H](C(C)C)NC(=O)[C@H](CCN)NC(=O)[C@H](Cc3c[nH]c4ccccc34)NC(=O)[C@H](CCN)NC(=O)[C@@H](CCN)NC2=O)[C@@H](C)O)CCNC(=O)[C@H]([C@@H](C)O)NC(=O)[C@H](CCN)NC(=O)[C@H](CCN)NC1=O [Ex. 88] (I: cyclo([Dab]E[dDab][Dab]W[Dab]VTS[dA][Hyp]LSY) / II: [Dab]T[Dab][Dab][Dab][dL]L[Dab][Dab]T; amide I:2-II:N; lactam II:4-II:C) | 1 |
